Measured values taken from patent publication US4701456A, “Aminoalkoxybenzopyranones as antipsychotic and anxiolytic agents” (Warner-Lambert Company, priority 1985, dated 1987).
Read-outs that look alike come from different tables or passages of the source.

Tests used:
[1] = system: mature male hooded rats (Long-Evans strain); assay: animal model of anxiety based on the Geller-Seifter conflict test; type: in vivo; settings: for Total Punished Responses, Test: four rats
From the text: The compounds of the present invention are new chemical substances which are also useful as pharmaceutical agents for the treatment of anxiety, i.e., anxiolytic agents. The antianxiety activity of a representative compound showing such activity for the compounds of the Formula I of the present invention is established by the use of an animal model of anxiety based on the Geller-Seifter conflict test described in Psychopharmacologia 1:482 (1960). Particularly the test follows initial shaping of response, an experimental conflict is induced, with animals trained until stable performance is established. Each animal serves as his own control. A description of the test is as follows:
Subjects: Mature male hooded rats (Long-Evans strain) 300-350 g body weight.
Apparatus: The experimental chamber consists of an inner test compartment with a lever mounted in one wall, a grid floor, an automatic feeding device, and a speaker. This chamber is enclosed by a sound insulated cubicle. Shock is provided by a LVE Model 1531 Constant Current SHocker. White (masking) noise is supplied by a LVE Model 1524 Noise Generator. A tone is produced by a LVE Model 1664 4.5 KC Tone Generator. All events and recordings are automatic and are programmed with appropriate electric timers and relay devices.
Procedure: Variable interval (VI)=two-minute; trial periods=four; shock=0.6 to 0.8 ma; food reward=Borden's Sweetened Condensed Milk diluted two parts water to one part milk; animals are deprived to 70% of their free feeding weight and are 23 hours starved; session length=one hour and 12 minutes.
The conflict is induced in the following manner: hungry rats are conditioned to press a lever to obtain a food reward. Reinforcement is contingent upon a lever press and occurs at variable intervals on the average of once every two minutes--VI two-minute (See Ferster; C. B., and Skinner, B. F., "In Schedules of Reinforcement, " Appleton-Century-Crofts,New York, 1957).
Spaced at regular intervals throughout the experimental session are four three-minute periods. During these trial periods a tone signals that every lever press will be food reinforced (CRF) and simultaneously punished by a painful electric foot shock.
In other words, food-deprived rats are trained to depress a lever in order to obtain food (sweetened condensed milk). Normally, the rats perform on a variable interval (VI) schedule on which a lever press results in food delivery on the average of once every two minutes; the time between successive periods of food availability is varied continuously such that animals respond at low but steady rates to obtain occasional access to food. After animals perform for 12 minutes on this schedule the house lights are extinguished and two small stimulus lights are illuminated, signaling the availability of food for each depression of the lever during a three minute trial period. During the trial, each depression of the lever also results in the delivery of mild electric shock (0.8 ma, 0.25 second duration) delivered through the grid floor (punishment). Thus, an approach-avoidance conflict is established with associated anxiety: food is readily available for each response, but each respone is punished (see Miller, N. E., "Some Recent Studies of Conflict Behavior and Drugs," Am. Pharmacologist, 16: 12, 1961). The scheduled used in our test employed four successive trials, each preceded by a 12-minute period during which the food-reinforced VI was in effect.
During sessions in which no drug is administered, rats normally respond at steady rates on the VI component but emit very few responses during the punished trial period.
The total number of punished responses made by the four subjects in the pretest and test sessions for the noted compound are as follows.
The pretest responses are cummulative responses emitted during the three minute tests from a previous nondrug session. […]

Swiss-Webster male mice = assay: Mouse Activity and Screen Test Procedure (MAST); type: in vivo; settings: ip, 1 h, intraperitoneal, one hour prior to testing, active = rating A at 100 mg/kg or less, read-out: Dose at which an overall dose rating of A was obtained
From the text: The compounds of the present invention are new chemical substances which are useful as pharmaceutical agents for the treatment of psychoses such as, for example, schizophrenia. The antipsychotic activity of representative compounds of the invention was established by the Mouse Activity and Screen Test Procedure (MAST) described below:
ANIMALS: Nine unfasted Swiss-Webster male mice (Buckberg Labs) weighing 20-30 g are equally divided into three groups for each drug dose to be tested. That is, data for each dose level was generated by three separate groups of three mice each.
DRUGS: A minimum of three dose levels (10, 30, and 100 mg/kg) are tested for each drug. Treatments are administered intraperitoneally one hour prior to testing. All dosages are calculated as parent compound and given in volumes of […]. Compounds are dissolved or suspended in 0.2% Methocel. Control animals are injected with Methocel.
TESTING: A two-part testing procedure is started one hour postinjection. First, the screen test is performed (see Pharmac Biochem Behav 6, 351-353, 1977). Briefly, this test consists of placing mice on individual wire screens which are then rotated 180° at the start of a 60-second observation period. The number of mice falling off the inverted screen is recorded.
Immediately following the screen test, the final phase of testing is initiated by placing each group of three mice in one actophotometer (Life Sciences, 22, 1067-1076, 1978). The actophotometer consists of a cylindrical chamber whose center is occupied by another cylinder which contains the illumination for six photocells located on the perimeter of the chamber. Six light-beam interruptions equal one count. Locomotor activity is recorded by computer at ten-minute intervals for 60 minutes.
DATA: The data obtained from the screen test are expressed as percent of mice falling off the screen. Data derived from locomotor activity of drug-treated mice are compared to the activity of vehicle-treated animals and are expressed as percent inhibition of spontaneous locomotion. All percentages reported for inhibition of locomotion are based upon data accumulated for one hour. Both phases of testing are graded: A=60-100%; C=31-59%; and N=0-30%. An overall dose rating is obtained by the following criteria. […]
______________________________________
Inhibition of Screen Test Dose
Locomotion rating with Failure Rating
Utilizing this procedure, an overall dose rating of A was obtained for the noted compounds at the indicated dose as reported in Table 1.

dopamine receptors = dopamine receptors (Rattus norvegicus, UniProt P61169); assay: [3H] haloperidol binding assay (HRBA); set-up: species or system Long-Evans hooded rats; settings: displacement of [3H] haloperidol (0.6 nM), rat striatal membranes, pH 7.6, 25° C., 40 minutes
dopamine receptors, sequence (P61169 whole entry): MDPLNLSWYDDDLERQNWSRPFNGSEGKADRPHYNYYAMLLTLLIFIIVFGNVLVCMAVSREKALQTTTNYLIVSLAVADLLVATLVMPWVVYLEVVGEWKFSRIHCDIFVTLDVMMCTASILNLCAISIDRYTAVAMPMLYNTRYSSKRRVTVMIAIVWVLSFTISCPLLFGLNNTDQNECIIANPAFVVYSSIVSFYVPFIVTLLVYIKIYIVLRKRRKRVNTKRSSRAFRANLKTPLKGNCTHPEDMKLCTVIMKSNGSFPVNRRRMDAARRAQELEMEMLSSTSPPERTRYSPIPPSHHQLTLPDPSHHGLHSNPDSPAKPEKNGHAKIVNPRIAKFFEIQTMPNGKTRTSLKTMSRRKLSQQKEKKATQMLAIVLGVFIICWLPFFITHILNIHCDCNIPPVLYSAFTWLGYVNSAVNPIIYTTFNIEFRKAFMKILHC
Experimental: [^3 H] Haloperidol Binding Assay. The relative affinities of compounds for dopamine receptors were evaluated on the basis of their ability to displace [^3 H] haloperidol from striatal membranes prepared from Long-Evans hooded rats. Rats were decapitated; the brains were removed, and the corpus striata were dissected. The corpus striata were homogenized in 40 volumes of […] Tris buffer (pH 7.6) and centrifuged. Pellets were rehomogenized in 50 volumes of the same buffer and used for the binding assay. Incubations were carried out in 10 ml of […] Tris-HCl buffer (pH 7.6) containing 2 mg/ml of original wet tissue weight of homogenate, 100 μl of test agent or solvent, and 0.6 nM of [^3 H] haloperidol. Nonspecific binding was determined in the presence of 0.1 μM (+)-butaclamol. Samples were incubated in reciprocating water bath at 25° C. for 40 minutes. Incubation was terminated by rapid filtration under reduced pressure through glass fiber filters (Whatman GF/B). The filters were rinsed three times with 10 ml of Tris-HCl buffer. The filters were placed in 10 ml of scintillation coctail (Beckman Ready-Solv HP) and shaken for one hour. Radioactivity retained on the filter was determined by liquid scintillation spectrophotometry. Compounds were initially evaluated at 10 nM. IC50 s when determined were calculated from a nonlinear computer curve, fit on the data from four or more concentrations, each done in triplicate.

## O=c1ccc2ccc(OCCCN3CCN(c4ncccn4)CC3)cc2o1 [7-[3-[4-(2-pyrimidinyl)-1-piperazinyl]propoxy]-2H-1-benzopyran-2-one]
[1]; 27.5 mg/kg PO (no increase)
  responding during trial periods: not at 27.5 mg/kg PO
[1]; 27.5 mg/kg PO, Pretest (nondrug session) 39
  Total Punished Responses, Test: 44
[1]; 55 mg/kg PO, Pretest (nondrug session) 78
  Total Punished Responses, Test: 147
[1]; 80 mg/kg
  rats with increases in punished responding: four of four rats
[1]; 80 mg/kg PO, Pretest (nondrug session) 23
  Total Punished Responses, Test: 77
[1]; 55
  rats with increases in punished responding: three of four rats
[1]; 55 and 80 mg/kg PO
  gross sedation: notable absence of gross sedation
  responding during trial periods: increased responding during trial periods
[1]; 55 and 80 mg/kg PO, unpunished responding
  responding during the VI component: not accompanied by decreased responding during the VI component

## CSc1ccc2c(c1)N(CCC1CCCCN1C)c1ccccc1S2 (stereo not drawn) [Thioridazine, reference compound]
Swiss-Webster male mice
  minimal effective dose: 10 mg/kg

## O=c1ccc2ccc(OCCCN3CCN(c4ccccc4)CC3)cc2o1 [drawing 15]
Swiss-Webster male mice
  minimal effective dose: 3 mg/kg

## Cc1cc(=O)oc2cc(OCCCN3CCN(c4ccccc4)CC3)ccc12 [drawing 16]
Swiss-Webster male mice
  minimal effective dose: 1 mg/kg

## O=c1ccc2ccc(OCCCN3CCN(c4ncccn4)CC3)cc2o1 [drawing 17]
Swiss-Webster male mice
  minimal effective dose: 3 mg/kg

## O=c1ccc2ccc(OCCCN3CC=C(c4ccccc4)CC3)cc2o1 [drawing 18]
Swiss-Webster male mice
  minimal effective dose: 1 mg/kg

## O=c1ccc2ccc(OCCCN3CCN(c4ccccc4)CC3)cc2o1 [drawing 20]
Dopamine receptors; read-out: IC50
  IC50: 15 nM

## Cc1cc(=O)oc2cc(OCCCN3CCN(c4ccccc4)CC3)ccc12 [drawing 21]
Dopamine receptors
  IC50: 50 nM

## O=c1ccc2ccc(OCCCN3CCN(c4ncccn4)CC3)cc2o1 [drawing 22]
Dopamine receptors; read-out: IC50
  IC50: 930 nM

## O=c1ccc2ccc(OCCCN3CC=C(c4ccccc4)CC3)cc2o1 [drawing 23]
Dopamine receptors
  IC50: 16 nM
